Results on 3 sequences are retold here after patent publication EP3298025B1, “NEW AMINO ACID SEQUENCES WITH MI[…] DERIVED FROM NAJA ATRA CARDIOTOXIN 1 (CTX-1)” (Università degli Studi di Parma, priority 2015, dated 2016).

For data set [1] the following is noted: at 40 µg / ml; cited from earlier work.
Data set [2] relates to Mutton RBCs. Kind of data set: haemolysis test. The class given is cell-based. The settings on record: maximum concentration 100 µg/ml; 1 hour at room temperature. The method, then: Mutton RBCs, sampled immediately before the test, were washed with isotonic buffer to obtain clear supernatant. The washed RBCs were incubated with different peptide concentrations for 1 hour at room temperature. After this the solution was centrifuged and the haemolysis in the supernatant quantified with a spectrophotometer at 450 nm. The positive control was RBC lysed with 0,1% of Tryton. The sample determined the maximal optical density. The haemolysis percentage was calculated as sample optical density at 450 nm and positive control optical density ratio. MHC10 was the minimal peptide concentration able to lyse 10% of RBC.

Data set [3] relates to epithelial MDBK cells (Madin Darby Bovine Kidney). Description: cytotoxicity against eukaryotic cells, Trypan Blue. It counts as cell-based. The conditions noted are these: overnight incubation. The method, then: Peptides cytotoxicity against epithelial MDBK cells (Madin Darby Bovine Kidney) was determined using cell cultures of about 5x10^5 cells/ml with and without peptides, with overnight incubation at 37°C with CO2. The negative control was in medium without peptide; positive control was in medium with 0.2% of Triton x100, to completely lyse cells. Cells vitality was assessed adding every well with 20 µl of Trypan Blue, incubating other 5 minutes at 37°C. MCC10 was the minimal peptide concentration with 10% of cytotoxicity.

No end group written: not given here.

In the case of “KFFKFFKFFK [synthetic peptide consisting of cationic lysine residues and hydrophobic phenylalanine residues]”, the hemolysis result in data set [1] is “severely hemolytic”.
In data set [2], KLIPILSKTIPAIKNLFYKI [NCP-2] returned a haemolytic effect of under 10%. The “Cytotoxicity: cell number percentage reduction in comparison with control” value stood at 3% in data set [3] (peptide 12.5 µg/ml) and 5% in data set [3] (peptide 100 µg/ml).
Take KLIWILSKTIPAIKNLFYKI [NCP-3]: the haemolytic effect in data set [2] is on record as under 10%. The “Cytotoxicity: cell number percentage reduction in comparison with control” value in data set [3] (peptide 12.5 µg/ml) worked out at 3%; in data set [3] (peptide 100 µg/ml), 7%.
